Experimental data: ChEMBL document CHEMBL1201862, “PubChem BioAssay data set” (2004)
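Assay format: 96-well plates, 48-hour exposure. GI50 is the concentration that inhibits growth by half.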 The source made the active and inactive calls. Rule as the data show it: active = GI50 up to about 1.1 µM and inactive = higher.

Key:
Experiment in all cases: growth of human tumour cells (NCI), 48 h
[1] = tested on: 786-0
[2] = tested on: A498
[3] = tested on: A549
[4] = tested on: ACHN
[5] = tested on: BT-549
[6] = tested on: CAKI-1
[7] = tested on: CCRF-CEM
[8] = tested on: COLO 205
[9] = tested on: DU-145
[10] = tested on: HCC 2998
[11] = tested on: HCT-116
[12] = tested on: HCT-15
[13] = tested on: HL-60
[14] = tested on: HOP-62
[15] = tested on: HOP-92
[16] = tested on: HT-29
[17] = tested on: Hs-578T
[18] = tested on: IGROV-1
[19] = tested on: K562
[20] = tested on: KM12
[21] = tested on: LOX IMVI
[22] = tested on: M14
[23] = tested on: MCF7
[24] = tested on: MDA-MB-231
[25] = tested on: MDA-MB-435
[26] = tested on: MDA-N
[27] = tested on: MOLT-4
[28] = tested on: Malme-3M
[29] = tested on: NCI-H226
[30] = tested on: NCI-H23
[31] = tested on: NCI-H460
[32] = tested on: NCI-H522
[33] = tested on: NCI/ADR-RES
[34] = tested on: OVCAR-3
[35] = tested on: OVCAR-4
[36] = tested on: OVCAR-5
[37] = tested on: OVCAR-8
[38] = tested on: PC-3
[39] = tested on: RPMI-8226
[40] = tested on: RXF 393
[41] = tested on: SF-268
[42] = tested on: SF-295
[43] = tested on: SK-MEL-28
[44] = tested on: SK-MEL-5
[45] = tested on: SK-OV-3
[46] = tested on: SN12C
[47] = tested on: SNB-19
[48] = tested on: SNB-75
[49] = tested on: SW-620
[50] = tested on: T47D
[51] = tested on: TK-10
[52] = tested on: U-251
[53] = tested on: UACC-257
[54] = tested on: UACC-62
[55] = tested on: UO-31
[56] = tested on: EKVX
[57] = tested on: SF-539
[58] = tested on: SK-MEL-2

In the case of CC(O)(c1ccccc1)c1nccc2ccccc12 (stereo not drawn), the GI50 [1] is reported as > 100 µM (inactive), the GI50 [2] is reported as 71.4 µM (inactive) and the GI50 [3] is reported as 87.3 µM (inactive). The GI50 [4] was > 100 µM (inactive), the GI50 [5] was 56.1 µM (inactive) and the GI50 [6] was > 100 µM (inactive). The GI50 [7] was 58.6 µM (inactive), the GI50 [8] was 70.6 µM (inactive) and the GI50 [9] was > 100 µM (inactive). The GI50 [10] was > 100 µM (inactive), the GI50 [11] was 61.4 µM (inactive) and the GI50 [12] was 53 µM. The GI50 [13] was > 100 µM (inactive), the GI50 [14] was > 100 µM (inactive) and the GI50 [15] was 22.4 µM (inactive). For the same compound, the GI50 [16] was 74.3 µM (inactive), the GI50 [17] was 45.8 µM (inactive) and the GI50 [18] was 37.8 µM (inactive). The GI50 [19] was 35.8 µM (inactive), the GI50 [20] was 36.4 µM (inactive) and the GI50 [21] was 75.9 µM (inactive). For the same compound, the GI50 [22] was 74.5 µM (inactive), the GI50 [23] was 80.9 µM (inactive) and the GI50 [24] was 20.1 µM (inactive). The GI50 [25] was 18.2 µM (inactive), the GI50 [26] was 23.4 µM (inactive) and the GI50 [27] was 41.9 µM (inactive). For the same compound, the GI50 [28] was 64.1 µM (inactive), the GI50 [29] was 31.5 µM (inactive) and the GI50 [30] was > 100 µM (inactive). The GI50 [31] was 96.4 µM (inactive), the GI50 [32] was 50.5 µM (inactive) and the GI50 [33] was 43.7 µM (inactive). The GI50 [34] was 57.9 µM (inactive), the GI50 [35] was 37.7 µM (inactive) and the GI50 [36] was 67.1 µM (inactive). For the same compound, the GI50 [37] was > 100 µM (inactive), the GI50 [38] was 22.6 µM (inactive) and the GI50 [39] was 37.3 µM (inactive). The GI50 [40] was > 100 µM (inactive), the GI50 [41] was 95.7 µM (inactive) and the GI50 [42] was 55 µM (inactive). The GI50 [43] was > 100 µM (inactive), the GI50 [44] was 44.2 µM (inactive) and the GI50 [45] was 96.6 µM (inactive). The GI50 [46] was > 100 µM (inactive), the GI50 [47] was > 100 µM (inactive) and the GI50 [48] was 53.7 µM (inactive). The GI50 [49] was 77.6 µM (inactive), the GI50 [50] was 68.1 µM (inactive) and the GI50 [51] was > 100 µM (inactive). For the same compound, the GI50 [52] was 45.5 µM (inactive), the GI50 [53] was > 100 µM (inactive) and the GI50 [54] was 50.6 µM (inactive). For the same compound, the GI50 [55] was 51.3 µM (inactive).
With CCC/C(Cl)=N\OC(=O)Nc1ccc(OC(F)(F)F)cc1 the GI50 [1] was 12.3 µM (inactive), the GI50 [2] was 23.8 µM (inactive) and the GI50 [3] was 20.2 µM (inactive). The GI50 [4] was 2.19 µM (inactive), the GI50 [5] was 20.9 µM (inactive) and the GI50 [6] was 1.66 µM (inactive). For the same compound, the GI50 [7] was 2.47 µM (inactive), the GI50 [8] was 1.82 µM (inactive) and the GI50 [9] was 18 µM (inactive). For the same compound, the GI50 [56] was 10.1 µM (inactive), the GI50 [10] was 19.5 µM (inactive) and the GI50 [11] was 9.4 µM (inactive). The GI50 [12] was 2.42 µM, the GI50 [13] was 3.25 µM (inactive) and the GI50 [14] was 18.1 µM (inactive). The GI50 [15] was 2.22 µM (inactive), the GI50 [16] was 18.2 µM (inactive) and the GI50 [17] was 28.1 µM (inactive). The GI50 [18] was 6.93 µM (inactive), the GI50 [19] was 2.42 µM (inactive) and the GI50 [20] was 9.48 µM (inactive). For the same compound, the GI50 [21] was 2.72 µM (inactive), the GI50 [22] was 6.52 µM (inactive) and the GI50 [23] was 8.26 µM (inactive). For the same compound, the GI50 [24] was 9.93 µM (inactive), the GI50 [25] was 22.1 µM (inactive) and the GI50 [26] was 13.5 µM (inactive). The GI50 [27] was 1.86 µM (inactive), the GI50 [28] was 1.68 µM (inactive) and the GI50 [29] was 15.6 µM (inactive). For the same compound, the GI50 [30] was 21.4 µM (inactive), the GI50 [31] was 20.5 µM (inactive) and the GI50 [32] was 1.08 µM (active). The GI50 [33] was 6.98 µM (inactive), the GI50 [34] was 11.3 µM (inactive) and the GI50 [35] was 18.6 µM (inactive). For the same compound, the GI50 [36] was 19.6 µM (inactive), the GI50 [37] was 16.7 µM (inactive) and the GI50 [38] was 17.7 µM (inactive). For the same compound, the GI50 [39] was 2.11 µM (inactive), the GI50 [40] was 16 µM (inactive) and the GI50 [41] was 24.7 µM (inactive). For the same compound, the GI50 [42] was 16.3 µM (inactive), the GI50 [57] was 16.7 µM (inactive) and the GI50 [43] was 19.6 µM (inactive). The GI50 [58] was 17.6 µM (inactive), the GI50 [44] was 5.4 µM (inactive) and the GI50 [45] was 18.5 µM (inactive). The GI50 [46] was 8.57 µM (inactive), the GI50 [47] was 30.3 µM (inactive) and the GI50 [48] was 15.6 µM (inactive). The GI50 [49] was 2.53 µM (inactive), the GI50 [50] was 2.79 µM (inactive) and the GI50 [51] was 3.3 µM (inactive). The GI50 [52] was 27 µM (inactive), the GI50 [53] was 19.6 µM (inactive) and the GI50 [54] was 18.8 µM (inactive). For the same compound, the GI50 [55] was 8.53 µM (inactive).
